Source: patent publication US20110136877A1, “2-PHENYL PHENOXYACETIC ACIDS USEFUL FOR TREATING INFLAMMATORY DISORDERS” (LIGAND PHARMACEUTICALS INC., priority 2008, published 2011)

Target: T1, human CRTH2 (Homo sapiens, UniProt Q9Y5Y4)
T1 construct: expressed in transfected cells; membranes used
T1 sequence (Q9Y5Y4 1-395): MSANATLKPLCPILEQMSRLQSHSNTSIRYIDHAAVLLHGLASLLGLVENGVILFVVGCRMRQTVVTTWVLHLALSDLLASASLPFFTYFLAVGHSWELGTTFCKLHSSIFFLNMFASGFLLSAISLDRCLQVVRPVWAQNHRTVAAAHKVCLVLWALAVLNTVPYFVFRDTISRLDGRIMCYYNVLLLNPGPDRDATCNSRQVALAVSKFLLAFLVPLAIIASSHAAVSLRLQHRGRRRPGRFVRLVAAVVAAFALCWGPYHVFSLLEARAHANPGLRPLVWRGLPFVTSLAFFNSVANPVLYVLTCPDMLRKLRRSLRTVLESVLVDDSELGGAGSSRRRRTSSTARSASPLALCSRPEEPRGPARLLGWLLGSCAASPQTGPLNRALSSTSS
Assay: [35S]GTPγS binding assay (SPA)
Format: biochemical
Settings: not given
Protocol: [^35S]GTPγS Binding Assay
SPA [^35S]GTPγS binding was performed on membranes from CHO-K1 cells stably expressing human CRTH2. To a white, clear-bottomed 384-well plate, 4 μg membrane protein was incubated in the binding buffer (20 mM HEPES, pH 7.4, 10 mM MgCl2, 300 mM NaCl, 0.2% BSA) with 60 nM DHK-PGD2, 500 pM [^35S]GTPγS, 10 μM GDP, and 100 μg wheat germ agglutinin-coupled SPA beads (GE Healthcare) with and without increasing concentrations of compounds. The final assay volume was 40 μL and contained 1% DMSO. Samples were incubated for 2 h at ambient temperature. Plates were centrifuged 5 min at 1500 rpm. Plates were read after an additional 4 h using the Trilux 1450 Microbeta (PerkinElmer) with a 30 sec/well reading time.

Structure (SMILES)	IC50 [nM]
CN(Cc1cccc(-c2cc(C(F)(F)F)ccc2OCC(=O)O)c1)C(=O)Oc1ccccc1 [Compound 24, {[3′-{[methyl(phenoxycarbonyl)amino]methyl}-5-(trifluoromethyl)biphenyl-2-yl]oxy}acetic acid]	100 to 1000

Same assay, conditions: membranes from CHO-K1 cells stably expressing human CRTH2; 60 nM DHK-PGD2; read-out: CRTH2 GTPγS assay IC50

Structure (SMILES)	IC50 [nM]
CCCCOC(=O)N(Cc1cccc(-c2cc(C(F)(F)F)ccc2OCC(=O)O)c1)c1ccccc1 [Compound 25, {[3′-{[(butoxycarbonyl)(phenyl)amino]methyl}-5-(trifluoromethyl)biphenyl-2-yl]oxy}acetic acid]	100 to 1000
CN(Cc1cccc(-c2cc(C(F)(F)F)ccc2OCC(=O)O)c1)C(=O)Nc1cccnc1 [Compound 29]	100 to 1000
CCCCOC(=O)N(C)Cc1cccc(-c2cc(C(F)(F)F)ccc2OCC(=O)O)c1 [Compound 18, {[3′-{[(butoxycarbonyl)(methyl)amino]methyl}-5-(trifluoromethyl)biphenyl-2-yl]oxy}acetic acid]	< 100
CCCCNC(=O)CN(Cc1cccc(-c2cc(F)ccc2OCC(=O)O)c1)C(=O)OCCCC [Compound 7, {[3′-({(butoxy carbonyl)[2-(butylamino)-2-oxoethyl]amino}methyl)-5-fluorobiphenyl-2-yl]oxy}acetic acid]	< 100
CCCCOC(=O)N(CCCC)Cc1cccc(-c2cc(C(F)(F)F)ccc2OCC(=O)O)c1 [Compound 19, {[3′-{[(butoxycarbonyl)(butyl)amino]methyl}-5-(trifluoromethyl)biphenyl-2-yl]oxy}acetic acid]	< 100
CCCCNC(=O)CN(Cc1cccc(-c2ccccc2OCC(=O)O)c1)C(=O)Cc1ccccc1 [Compound 13, {[3′-{[[2-(butylamino)-2-oxoethyl](phenylacetyl)amino]methyl}-biphenyl-2-yl]oxy}acetic acid]	< 100
CCCCNC(=O)CN(Cc1cccc(-c2cc(C)ccc2OCC(=O)O)c1)C(=O)OCCCC [Compound 8, {[3′-({(butoxy carbonyl)[2-(butylamino)-2-oxoethyl]amino}methyl)-5-methylbiphenyl-2-yl]oxy}acetic acid]	< 100
CN(Cc1cccc(-c2cc(C(F)(F)F)ccc2OCC(=O)O)c1)C(=O)Nc1ccccc1 [Compound 28, {[3′-{[(anilinocarbonyl)(methyl)amino]methyl}-5-(trifluoromethyl)biphenyl-2-yl]oxy}acetic acid]	100 to 1000
CN(Cc1cccc(-c2cc(C(F)(F)F)ccc2OCC(=O)O)c1)S(=O)(=O)c1ccccc1 [Compound 33, {[3′-{[(benzensulfonyl)(methyl)amino]methyl}-5-(trifluoromethyl)biphenyl-2-yl]oxy}acetic acid]	100 to 1000
CCCCNC(=O)CN(CCc1ccc(-c2ccccc2OCC(=O)O)cc1)C(=O)OCCCC [Compound 36, {[4′-({(butoxy carbonyl)[2-(butylamino)-2-oxoethyl]amino}ethyl)biphenyl-2-yl]oxy}acetic acid]	< 100
CN(Cc1cccc(-c2cc(C(F)(F)F)ccc2OCC(=O)O)c1)C(=O)c1cccnc1 [Compound 32, {[3′-{[methyl(pyridine-3-ylcarbonyl)amino]methyl}-5-(trifluoromethyl)biphenyl-2-yl]oxy}acetic acid]	< 100
CC(=O)N(Cc1cccc(-c2cc(C(F)(F)F)ccc2OCC(=O)O)c1)c1ccccc1 [Compound 22, {[3′-{[acetyl(phenyl)amino]methyl}-5-(trifluoromethyl)biphenyl-2-yl]oxy}acetic acid]	100 to 1000
CNC(=O)CN(Cc1cccc(-c2cc(C(F)(F)F)ccc2OCC(=O)O)c1)C(C)=O [Compound 21, {[3′-({(acetyl)[2-(methylamino)-2-oxoethyl]amino}methyl)-5-(trifluoromethyl)biphenyl-2-yl]oxy}acetic acid]	100 to 1000
CCCCNC(=O)CN(Cc1cccc(-c2cc(C(F)(F)F)ccc2OCC(=O)O)c1)C(=O)OCCCC [Compound 9, {[3′-({(butoxy carbonyl)[2-(butylamino)-2-oxoethyl]amino}methyl)-5-(trifluoromethyl)biphenyl-2-yl]oxy}acetic acid]	< 100
CN(Cc1cccc(-c2cc(C(F)(F)F)ccc2OCC(=O)O)c1)S(=O)(=O)c1cccnc1 [Compound 34, {[3′-{[(pyridine-3-ylsulfonyl)(methyl)amino]methyl}-5-(trifluoromethyl)biphenyl-2-yl]oxy}acetic acid]	100 to 1000
CCCCNC(=O)CN(Cc1cccc(-c2cc(Cl)ccc2OCC(=O)O)c1)C(=O)OCCCC [Compound 11, {[3′-({(butoxy carbonyl)[2-(butylamino)-2-oxoethyl]amino}methyl)-5-chlorobiphenyl-2-yl]oxy}acetic acid]	< 100
CN(Cc1cccc(-c2cc(C(F)(F)F)ccc2OCC(=O)O)c1)C(=O)c1ccccc1 [Compound 23, {[3′-{[methyl(phenylcarbonyl)amino]methyl}-5-(trifluoromethyl)biphenyl-2-yl]oxy}acetic acid]	100 to 1000
CCCCNC(=O)CN(Cc1cccc(-c2ccccc2OCC(=O)O)c1)C(=O)OCCCC [Compound 6, {[3′-({(butoxy carbonyl)[2-(butylamino)-2-oxoethyl]amino}methyl)biphenyl-2-yl]oxy}acetic acid]	< 100
CCCCOC(=O)N(CC(=O)NC)Cc1cccc(-c2cc(C(F)(F)F)ccc2OCC(=O)O)c1 [Compound 20, {[3′-({(butoxycarbonyl) [2-(methylamino)-2-oxoethyl]amino}methyl)-5-(trifluoromethyl)biphenyl-2-yl]oxy}acetic acid]	< 100
CCCCNC(=O)N(C)Cc1cccc(-c2cc(C(F)(F)F)ccc2OCC(=O)O)c1 [Compound 30, {[3′-{[(butylaminocarbonyl)(methyl)amino]methyl}-5-(trifluoromethyl)biphenyl-2-yl]oxy}acetic acid]	< 100
CCCCOC(=O)N(Cc1cccc(-c2cc(C(F)(F)F)ccc2OCC(=O)O)c1)Cc1nccs1 [Compound 27, {[3′-{[(butoxycarbonyl)(1,3-thiazol-2-ylmethyl)amino]methyl}-5-(trifluoromethyl)biphenyl-2-yl]oxy}acetic acid]	< 100
